A word on the IC50: it is the point on the concentration scale where inhibition reaches its midpoint.

The target in test [1] is T1, SYK kinase (Homo sapiens, UniProt P43405).
T1 construct: purchased Invitrogen, Carlsbad
Description: SYK Assay (OMNIA Kinase Assay, SOX peptide fluorescence). The test is classed as biochemical. To be noted: 1 mM ATP, 10 μM Omnia Peptide Substrate Tyr 7, 30° C., readings for 30 minutes; read-out: SYK Activities: IC50. As for the experimental part: In the assay OMNIA® KINASE ASSAY by Invitrogen Corporation (Carlsbad) the effect of invention of a compound on the phosphorylation is determined by measurement of fluorescence intensity of a chelation-enhanced fluorophore called SOX. Upon phosphorylation of the peptide by the kinase of interest, Mg2+ is chelated to form a bridge between the SOX moiety and the phosphate group that is transferred to the specific tyrosine on the peptide. The fluorescence intensity is directly proportional to the amount of peptide phosphorylation.
To the wells of an 384 well small volume plate (Greiner, Frickenhausen) are added (i) the compound under test in 5% DMSO/distilled water (2 μl), (ii) 16 μl of the master mix containing ATP, DTT, Kinase Reaction Buffer, Omina Peptide Substrate Tyr 7 resulting in a final concentration of 1 mM ATP, 0.2 mM DTT and 10 μM Peptide Substrate.
The Master Mix and the assay plate was incubated to reaction temperature before the measurement (30° C.). The reaction was started with addition of (iii) 2 μl 4 μg/ml SYK kinase (Invitrogen, Carlsbad). During measurement fluorescence intensity readings were collected using a TECAN M1000 at a wavelength of λex 360/λem 485 nm every 30 s for 30 minutes. The reaction velocity was plotted versus the inhibitor concentration to determine the IC50 using XLFit 5.0 (IDBS, Guildford) to fit to a sigmoidal dose response curve.

In test [2] the target is LRRK2 (Homo sapiens, UniProt Q5S007). Description: LRRK2-LRRK2 G2019S-Assay (LanthaScreen Eu Kinase Binding Assay). To be noted: 5 nM LRRK2, 10 nM tracer 236, 2 nM EU-Anti-GST antibody, 1 h at RT; read-out: LRRK2 Activities: IC50. A digest of the protocol:
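Compound competition with Alexa Fluor 647 tracer 236 (10 nM) was measured after 1 h at room temperature, using 5 nM LRRK2 (wild type or mutant) bound to 2 nM Eu-anti-GST antibody. IC50 was derived from the acceptor/donor (665/615 nm) ratio using a variable-slope dose-response fit.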
Background: In TR-FRET formats the signal depends on donor and acceptor labels being close together.

Sequence of LRRK2 (Q5S007 970-2527 limits assumed): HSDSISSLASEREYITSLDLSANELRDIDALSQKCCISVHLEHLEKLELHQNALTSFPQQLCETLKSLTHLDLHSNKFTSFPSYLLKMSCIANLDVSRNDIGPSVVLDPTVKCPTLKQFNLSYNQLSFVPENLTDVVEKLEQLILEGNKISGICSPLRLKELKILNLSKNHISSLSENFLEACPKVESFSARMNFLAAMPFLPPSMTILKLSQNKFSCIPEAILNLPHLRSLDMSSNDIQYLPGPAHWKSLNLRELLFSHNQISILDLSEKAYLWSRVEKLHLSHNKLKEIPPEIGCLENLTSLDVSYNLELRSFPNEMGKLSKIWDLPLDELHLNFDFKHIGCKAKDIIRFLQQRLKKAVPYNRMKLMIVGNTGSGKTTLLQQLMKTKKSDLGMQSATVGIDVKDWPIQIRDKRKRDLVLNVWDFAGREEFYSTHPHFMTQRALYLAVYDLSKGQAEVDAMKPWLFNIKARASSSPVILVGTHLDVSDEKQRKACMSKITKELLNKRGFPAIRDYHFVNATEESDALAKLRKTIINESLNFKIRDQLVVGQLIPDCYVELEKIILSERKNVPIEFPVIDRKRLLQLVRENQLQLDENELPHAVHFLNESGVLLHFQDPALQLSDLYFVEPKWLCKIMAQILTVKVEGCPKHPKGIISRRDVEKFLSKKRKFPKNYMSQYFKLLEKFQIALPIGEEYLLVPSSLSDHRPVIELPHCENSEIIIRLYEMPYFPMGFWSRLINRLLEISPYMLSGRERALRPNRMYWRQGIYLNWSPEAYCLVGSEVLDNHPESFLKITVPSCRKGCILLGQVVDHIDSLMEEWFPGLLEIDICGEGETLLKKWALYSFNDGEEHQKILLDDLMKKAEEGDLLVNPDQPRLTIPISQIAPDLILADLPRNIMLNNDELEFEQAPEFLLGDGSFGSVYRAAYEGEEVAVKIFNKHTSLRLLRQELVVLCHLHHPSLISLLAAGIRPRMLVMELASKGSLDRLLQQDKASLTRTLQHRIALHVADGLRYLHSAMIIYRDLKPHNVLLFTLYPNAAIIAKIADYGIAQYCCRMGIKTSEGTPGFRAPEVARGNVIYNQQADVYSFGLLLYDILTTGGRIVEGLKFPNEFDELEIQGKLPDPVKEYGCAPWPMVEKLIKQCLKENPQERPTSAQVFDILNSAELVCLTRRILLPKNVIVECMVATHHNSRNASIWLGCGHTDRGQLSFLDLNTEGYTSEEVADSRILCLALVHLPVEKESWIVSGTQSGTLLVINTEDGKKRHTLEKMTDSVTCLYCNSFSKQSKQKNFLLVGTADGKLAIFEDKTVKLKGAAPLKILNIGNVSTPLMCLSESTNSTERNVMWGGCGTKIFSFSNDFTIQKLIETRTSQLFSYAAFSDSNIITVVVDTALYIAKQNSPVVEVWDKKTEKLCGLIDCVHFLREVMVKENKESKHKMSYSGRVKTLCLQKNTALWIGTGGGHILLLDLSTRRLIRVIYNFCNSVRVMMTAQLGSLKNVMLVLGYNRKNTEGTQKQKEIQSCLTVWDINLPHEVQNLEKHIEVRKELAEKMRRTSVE

On to `Brc1cccc2c1nc(Nc1cnn(C3CCOCC3)c1)c1[nH]ncc12` [Example 355, 6-bromo-N-(1-(tetrahydro-2H-pyran-4-yl)-1H-pyrazol-4-yl)-3H-pyrazolo[3,4-c]quinolin-4-amine], for which the half-maximal inhibitory concentration (IC50) in test [1] was in the range of 0.01 to 0.1 µM.

Turning to `O=C1CCc2ccc(Nc3nc4c(F)cccc4c4cn[nH]c34)cc2N1` [Example 54, 7-((6-fluoro-3H-pyrazolo[3,4-c]quinolin-4-yl)amino)-3,4-dihydroquinolin-2(1H)-one], the concentration for half-maximal inhibition (IC50) in test [1] was in the range of 0.1 to 1 µM. With `COc1cccc2nc(Nc3cnn(C4CCOCC4)c3)c3[nH]ncc3c12` [Example 102, 9-methoxy-N-(1-(tetrahydro-2H-pyran-4-yl)-1H-pyrazol-4-yl)-3H-pyrazolo[3,4-c]quinolin-4-amine], in test [1], the IC50 fell in the range of 0.1 to 1 µM.

`CS(=O)(=O)c1ccc2nc(Nc3cnn(-c4ccccn4)c3)c3n[nH]cc3c2c1` [Example 341, 8-(methylsulfonyl)-N-(1-(pyridin-2-yl)-1H-pyrazol-4-yl)-2H-pyrazolo[3,4-c]quinolin-4-amine]: the IC50 in test [1] is 0.1 to 1 µM. Consider `CN1CCC(n2cc(Nc3nc4ccc(S(C)(=O)=O)cc4c4cn[nH]c34)cn2)CC1` [Example 114, N-(1-(1-methylpiperidin-4-yl)-1H-pyrazol-4-yl)-8-(methylsulfonyl)-3H-pyrazolo[3,4-c]quinolin-4-amine], for which, in test [1], the 50% inhibitory concentration (IC50) is under 0.01 µM. For `Cc1c(Nc2nc3ccc(S(C)(=O)=O)cc3c3cn[nH]c23)cnn1C(C)C` [Example 218, N-(1-isopropyl-5-methyl-1H-pyrazol-4-yl)-8-(methylsulfonyl)-3H-pyrazolo[3,4-c]quinolin-4-amine], the half-maximal inhibitory concentration (IC50) in test [1] lay in the range of 0.1 to 1 µM. In the case of `CC(=O)N1CCC(n2cc(Nc3nc4ccc(S(C)(=O)=O)cc4c4cn[nH]c34)cn2)CC1` [Example 115, 1-(4-(4-((8-(methylsulfonyl)-3H-pyrazolo[3,4-c]quinolin-4-yl)amino)-1H-pyrazol-1-yl)piperidin-1-yl)ethan-1-one], in test [1], the IC50 is under 0.01 µM. Take `COc1ccc2nc(Nc3cnn(CCF)c3)c3[nH]ncc3c2c1` [Example 291, N-(1-(2-fluoroethyl)-1H-pyrazol-4-yl)-8-methoxy-3H-pyrazolo[3,4-c]quinolin-4-amine]: the IC50 in test [1] lay within 0.1 to 1 µM. Regarding `CS(=O)(=O)c1ccc2nc(Nc3cc(C(=O)O)n[nH]3)c3n[nH]cc3c2c1` [Example 335, 5-((8-(methylsulfonyl)-2H-pyrazolo[3,4-c]quinolin-4-yl)amino)-1H-pyrazole-3-carboxylic acid], the IC50 in test [2] is 0.1 to 1 µM.

With `Cc1c(Nc2nc3ccc(S(C)(=O)=O)cc3c3c[nH]nc23)cnn1CC(C)(C)O` [Example 326, 2-methyl-1-(5-methyl-4-((8-(methylsulfonyl)-2H-pyrazolo[3,4-c]quinolin-4-yl)amino)-1H-pyrazol-1-yl)propan-2-ol], in test [2], the IC50 was in the range of 0.1 to 1 µM.

In the case of `CS(=O)(=O)c1ccc2nc(Nc3ccc4c(c3)NC(=O)CO4)c3n[nH]cc3c2c1` [Example 343, 6-((8-(methylsulfonyl)-2H-pyrazolo[3,4-c]quinolin-4-yl)amino)-2H-benzo[b][1,4]oxazin-3(4H)-one], in test [2], the IC50 lay in the range of 0.01 to 0.1 µM.

Regarding `CS(=O)(=O)c1ccc2nc(Nc3cnn(C4CCOCC4)c3Cl)c3[nH]ncc3c2c1` [Example 265, N-(5-chloro-1-(tetrahydro-2H-pyran-4-yl)-1H-pyrazol-4-yl)-8-(methylsulfonyl)-3H-pyrazolo[3,4-c]quinolin-4-amine], the IC50 in test [2] was under 0.01 µM. For `COCCn1ncc(Nc2nc3ccc(S(C)(=O)=O)cc3c3cn[nH]c23)c1Cl` [Example 242, N-(5-chloro-1-(2-methoxyethyl)-1H-pyrazol-4-yl)-8-(methylsulfonyl)-3H-pyrazolo[3,4-c]quinolin-4-amine], in test [2], the concentration for half-maximal inhibition (IC50) fell in the range of 0.01 to 0.1 µM. For `COc1ccc2nc(Nc3ccc(N4CCOC4=O)cc3)c3n[nH]cc3c2c1` [Example 25, 3-(4-((8-methoxy-2H-pyrazolo[3,4-c]quinolin-4-yl)amino)phenyl)oxazolidin-2-one], the concentration for half-maximal inhibition (IC50) in test [2] lay within 0.1 to 1 µM. For `Cc1nn(C(C)C)cc1Nc1nc2ccc(S(C)(=O)=O)cc2c2cn[nH]c12` [Example 217, N-(1-isopropyl-3-methyl-1H-pyrazol-4-yl)-8-(methylsulfonyl)-3H-pyrazolo[3,4-c]quinolin-4-amine], in test [2], the IC50 was 0.01 to 0.1 µM. Turning to `COc1ccc2nc(Nc3ccc(-c4nnc(S)o4)cc3)c3n[nH]cc3c2c1` [Example 84, 5-(4-((8-methoxy-2H-pyrazolo[3,4-c]quinolin-4-yl)amino)phenyl)-1,3,4-oxadiazole-2-thiol], the IC50 in test [2] lay within 0.01 to 0.1 µM. For the compound `COCCn1cc(Nc2nc3cccc(OC)c3c3c[nH]nc23)cn1` [Example 156, 9-methoxy-N-(1-(2-methoxyethyl)-1H-pyrazol-4-yl)-2H-pyrazolo[3,4-c]quinolin-4-amine], the half-maximal inhibitory concentration (IC50) in test [2] was under 0.01 µM. On the same count and under the same terms, the result for `COCCn1ncc(Nc2nc3cccc(OC)c3c3cn[nH]c23)c1Br` [Example 275, N-(5-bromo-1-(2-methoxyethyl)-1H-pyrazol-4-yl)-9-methoxy-3H-pyrazolo[3,4-c]quinolin-4-amine] reads 0.01 to 0.1 µM. `COc1cccc2nc(Nc3cnn(C4CCOCC4)c3Cl)c3[nH]ncc3c12` [Example 255, N-(5-chloro-1-(tetrahydro-2H-pyran-4-yl)-1H-pyrazol-4-yl)-9-methoxy-3H-pyrazolo[3,4-c]quinolin-4-amine]: the IC50 in test [2] was under 0.01 µM. As for `Cn1nc(C2CC2)cc1Nc1nc2ccc(S(C)(=O)=O)cc2c2cn[nH]c12` [Example 239, N-(3-cyclopropyl-1-methyl-1H-pyrazol-5-yl)-8-(methylsulfonyl)-3H-pyrazolo[3,4-c]quinolin-4-amine], in test [2], the IC50 fell in the range of 0.1 to 1 µM. Consider `COc1cccc2nc(Nc3cnn(C4CCN(C(C)=O)CC4)c3)c3[nH]ncc3c12` [Example 157, 1-(4-(4-((9-methoxy-3H-pyrazolo[3,4-c]quinolin-4-yl)amino)-1H-pyrazol-1-yl)piperidin-1-yl)ethan-1-one], for which, in test [2], the 50% inhibitory concentration (IC50) was under 0.01 µM. With `COc1cccc2nc(Nc3cn(C4CCOCC4)nc3C)c3[nH]ncc3c12` [Example 207, 9-methoxy-N-(3-methyl-1-(tetrahydro-2H-pyran-4-yl)-1H-pyrazol-4-yl)-3H-pyrazolo[3,4-c]quinolin-4-amine], the IC50 in test [2] lay within 0.01 to 0.1 µM. The same measure, in the same setting: the result for `COc1ccc2nc(Nc3ccc(N(C)C)nc3)c3n[nH]cc3c2c1` [Example 87, N5-(8-methoxy-2H-pyrazolo[3,4-c]quinolin-4-yl)-N2,N2-dimethylpyridine-2,5-diamine] reads 0.1 to 1 µM; that for `COCCn1cc(Nc2nc3ccc(S(C)(=O)=O)cc3c3cn[nH]c23)c(C(F)(F)F)n1` [Example 271, N-(1-(2-methoxyethyl)-3-(trifluoromethyl)-1H-pyrazol-4-yl)-8-(methylsulfonyl)-3H-pyrazolo[3,4-c]quinolin-4-amine], 0.01 to 0.1 µM. As for `COc1ccc2nc(Nc3ccc(N4CCC(N5CCN(C)CC5)CC4)nc3)c3n[nH]cc3c2c1` [Example 96, 8-methoxy-N-(6-(4-(4-methylpiperazin-1-yl)piperidin-1-yl)pyridin-3-yl)-2H-pyrazolo[3,4-c]quinolin-4-amine], in test [2], the 50% inhibitory concentration (IC50) was 0.1 to 1 µM. The same measure, in the same setting: the result for `COCCn1ncc(Nc2nc3cccc(OC)c3c3cn[nH]c23)c1Cl` [Example 241, N-(5-chloro-1-(2-methoxyethyl)-1H-pyrazol-4-yl)-9-methoxy-3H-pyrazolo[3,4-c]quinolin-4-amine] reads 0.01 to 0.1 µM; that for `COc1ccc2nc(Nc3ccc(-c4ncco4)cc3)c3n[nH]cc3c2c1` [Example 36, 8-methoxy-N-(4-(oxazol-2-yl)phenyl)-2H-pyrazolo[3,4-c]quinolin-4-amine], 0.1 to 1 µM. Regarding `COCCn1cc(Nc2nc3cccc(OC)c3c3cn[nH]c23)c(C(F)(F)F)n1` [Example 267, 9-methoxy-N-(1-(2-methoxyethyl)-3-(trifluoromethyl)-1H-pyrazol-4-yl)-3H-pyrazolo[3,4-c]quinolin-4-amine], the IC50 in test [2] lay within 0.1 to 1 µM.

As to `COc1ccc(Nc2nc3ccc(SC)cc3c3cn[nH]c23)cc1OC` [Example 45, N-(3,4-dimethoxyphenyl)-8-(methylthio)-3H-pyrazolo[3,4-c]quinolin-4-amine], the concentration for half-maximal inhibition (IC50) in test [2] was 0.1 to 1 µM. As to `COc1cccc2nc(Nc3cnn(C4(C#N)CCCCC4)c3)c3[nH]ncc3c12` [Example 185, 1-(4-((9-methoxy-3H-pyrazolo[3,4-c]quinolin-4-yl)amino)-1H-pyrazol-1-yl)cyclohexanecarbonitrile], the half-inhibitory concentration (IC50) in test [2] is under 0.01 µM. The same measure, in the same setting: the result for `COCCn1ncc(Nc2nc3ccc(S(C)(=O)=O)cc3c3cn[nH]c23)c1Br` [Example 279, N-(5-bromo-1-(2-methoxyethyl)-1H-pyrazol-4-yl)-8-(methylsulfonyl)-3H-pyrazolo[3,4-c]quinolin-4-amine] reads 0.01 to 0.1 µM. On the same count and under the same terms, the result for `COc1cccc2nc(Nc3cnn(C(C)C)c3C(N)=O)c3[nH]ncc3c12` [Example 266, 1-isopropyl-4-((9-methoxy-3H-pyrazolo[3,4-c]quinolin-4-yl)amino)-1H-pyrazole-5-carboxamide] reads 0.01 to 0.1 µM.
